Test results reported in ChEMBL document CHEMBL1201862, “PubChem BioAssay data set” (2004).
Active and inactive are the calls of the source.

What was measured:
[1] = biological target: Voltage-gated inwardly rectifying potassium channel KCNH2 (Homo sapiens, UniProt Q12809); conditions: Potency;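 further: confirmatory quantitative high-throughput screen measuring inhibition of hERG channel activity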
Cytochrome P450 2C9 = Cytochrome P450 2C9 (Homo sapiens, UniProt P11712)
Cytochrome P450 3A4 = Cytochrome P450 3A4 (Homo sapiens, UniProt P08684);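 further: CYP3A4 tested as one member of a cytochrome P450 panel screen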
Chain of Cytochrome P450 3A4 (P08684 whole entry): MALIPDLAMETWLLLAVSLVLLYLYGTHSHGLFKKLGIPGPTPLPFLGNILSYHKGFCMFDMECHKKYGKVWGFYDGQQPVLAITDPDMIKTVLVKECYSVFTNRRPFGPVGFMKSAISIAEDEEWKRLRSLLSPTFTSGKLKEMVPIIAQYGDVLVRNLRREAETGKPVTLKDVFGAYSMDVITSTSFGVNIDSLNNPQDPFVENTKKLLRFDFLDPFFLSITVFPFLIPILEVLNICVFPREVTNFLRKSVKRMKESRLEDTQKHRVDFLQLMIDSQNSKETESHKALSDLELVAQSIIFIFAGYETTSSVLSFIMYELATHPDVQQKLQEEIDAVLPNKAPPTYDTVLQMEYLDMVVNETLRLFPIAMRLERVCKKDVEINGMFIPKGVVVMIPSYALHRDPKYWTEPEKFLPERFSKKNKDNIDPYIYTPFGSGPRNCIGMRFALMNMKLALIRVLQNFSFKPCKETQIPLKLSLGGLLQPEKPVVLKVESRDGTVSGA

Bcl-2-related protein A1 = biological target: T1, Bcl-2-related protein A1 (Mus musculus, UniProt Q07440); type: functional;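 further: confirmatory dose–response counterscreen on Bfl-1, used to check hits from a UBC13 polyubiquitin inhibitor campaign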
T1 sequence (Q07440 whole entry): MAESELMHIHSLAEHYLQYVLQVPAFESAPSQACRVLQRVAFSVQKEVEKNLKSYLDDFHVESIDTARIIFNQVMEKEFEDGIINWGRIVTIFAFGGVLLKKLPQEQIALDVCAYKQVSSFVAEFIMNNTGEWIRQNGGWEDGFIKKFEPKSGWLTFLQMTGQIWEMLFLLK

[2] = biological target: T2, Ubiquitin-conjugating enzyme E2 N (Homo sapiens, UniProt P61088); type: functional
T2 sequence (P61088 whole entry): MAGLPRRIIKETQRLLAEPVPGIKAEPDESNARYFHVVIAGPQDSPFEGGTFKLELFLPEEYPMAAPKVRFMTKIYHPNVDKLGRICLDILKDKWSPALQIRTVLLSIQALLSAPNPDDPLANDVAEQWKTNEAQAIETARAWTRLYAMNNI

[3] = biological target: T2, Ubiquitin-conjugating enzyme E2 N; type: functional; remark: listed apart in the source
[4] = THP-1 cell cytotoxicity, dose response, cytotoxicity control for non-replicating M. tuberculosis project (AID 489025); type: functional
[5] = Luminescence Cell-Based Dose Retest to Confirm Inhibitors of Cancer Stem Cells. [Related pubchem assays (depositor defined):AID2717, AID2721]; type: functional; conditions: Homo sapiens
[6] = biological target: T3, Microphthalmia-associated transcription factor (Homo sapiens, UniProt O75030); assay: reducers of TRPM1 reporter luminescence, concentration series – cell-based, SK-MEL-5, cherry-picked, set 3, MITF inhibitor project, dose response (AID 493073); type: functional;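 further: SK-MEL-5 melanoma cells with luciferase driven by the MITF target TRPM1 promoter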
T3 sequence (O75030 whole entry): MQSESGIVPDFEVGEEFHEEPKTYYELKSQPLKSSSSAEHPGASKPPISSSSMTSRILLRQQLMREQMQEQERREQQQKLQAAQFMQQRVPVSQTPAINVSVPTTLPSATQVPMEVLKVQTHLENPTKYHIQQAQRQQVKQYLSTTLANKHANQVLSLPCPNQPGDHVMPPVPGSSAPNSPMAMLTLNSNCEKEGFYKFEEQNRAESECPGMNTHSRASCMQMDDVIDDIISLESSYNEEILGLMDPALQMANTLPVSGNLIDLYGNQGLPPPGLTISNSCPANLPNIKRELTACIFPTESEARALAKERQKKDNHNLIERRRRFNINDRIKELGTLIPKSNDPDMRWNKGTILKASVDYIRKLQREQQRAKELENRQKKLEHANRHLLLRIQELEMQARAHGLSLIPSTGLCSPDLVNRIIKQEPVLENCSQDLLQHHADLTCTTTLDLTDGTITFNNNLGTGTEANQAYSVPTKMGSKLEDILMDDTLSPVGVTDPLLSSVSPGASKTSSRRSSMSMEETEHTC

cells = type: functional
A-375 [7] = assay: MITF: Counter assay: A375 proliferation Measured in Cell-Based System Using Plate Reader - 2084-03_Inhibitor_Dose_DryPowder_Activity. [Related pubchem assays (depositor defined):AID488944]; type: functional; conditions: Homo sapiens
A-375 [8] = assay: proliferation inhibition in MITF-low A375 cells – cell-based, cherry-pick samples, set 2, counter-screen for MITF modulator project, dose response (AID 540335); type: functional; conditions: Homo sapiens
HEK293 [9] = assay: cells; conditions: Homo sapiens
HEK293 [10] = assay: cells; conditions: Homo sapiens; remark: listed apart in the source
[11] = blockers of HIV-1 envelope-mediated cell-cell fusion – cherry-pick, dose response (AID 652057); type: functional, cell-based
[12] = blockers of HIV-1 ZM109 envelope-driven cell-cell fusion – HeLa effector, CEM target cells, luciferase, cherry-pick, dose response (AID 652058); type: functional, cell-based;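 further: luciferase signal from HIV-1 Env mediated cell-cell fusion of effector and target cells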
[13] = off-target signal loss in HeLa-CEM21 co-culture – HeLa F-luc CTL cells, cherry-picked, counter-screen for HIV-1 Env fusion inhibitor project, dose response (AID 652040); type: functional, cell-based;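 further: potency for signal decrease marking cytotoxic or nonspecific inhibition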
[14] = HIV-1 AD8 envelope cell-cell fusion blockers – cherry-pick, dose response (AID 652062); type: functional, cell-based;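 further: luciferase signal from cell-cell fusion driven by HIV-1 clade B AD8 Env; potency is for inhibitors of fusion seen as a drop in luminescence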
HEK293 [15] = assay: inhibition of NOD1-driven NF-kB reporter – cell-based, luminescence, uHTS, primary screen (AID 1578); type: functional; conditions: Homo sapiens
HEK293 [16] = assay: cells; type: functional, cell-based; conditions: Homo sapiens
HEK293 [17] = assay: cells; type: functional, cell-based; conditions: Homo sapiens; remark: listed apart in the source
HEK293 [18] = assay: NOD2 signaling inhibitors in MDP-stimulated cells, cell-based, uHTS, luminescence (AID 2001); type: functional; conditions: Homo sapiens
[19] = biological target: COUP transcription factor 2 (Homo sapiens, UniProt P24468); assay: Luminescence-based cell-based high throughput dose response assay to identify inhibitors of COUP-TFII (NR2F2).; type: functional;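 further: HEK293 cells transiently cotransfected with COUP-TFII expression vector and reporter; luciferase reporter luminescence driven by COUP-TFII from the pX2-168 reporter plasmid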
Chain of COUP transcription factor 2 (P24468 whole entry): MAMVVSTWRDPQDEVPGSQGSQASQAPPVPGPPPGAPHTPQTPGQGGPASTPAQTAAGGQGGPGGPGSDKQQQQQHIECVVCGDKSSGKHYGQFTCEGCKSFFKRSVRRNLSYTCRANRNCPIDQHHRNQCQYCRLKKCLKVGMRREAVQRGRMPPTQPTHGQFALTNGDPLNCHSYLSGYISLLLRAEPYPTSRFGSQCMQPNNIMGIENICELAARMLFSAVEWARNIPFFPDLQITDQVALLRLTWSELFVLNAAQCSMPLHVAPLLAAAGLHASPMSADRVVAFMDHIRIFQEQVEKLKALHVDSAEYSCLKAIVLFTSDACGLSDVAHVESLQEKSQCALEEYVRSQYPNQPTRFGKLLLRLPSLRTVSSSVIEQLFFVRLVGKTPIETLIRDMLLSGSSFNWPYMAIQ

Chain of Voltage-gated inwardly rectifying potassium channel KCNH2 (Q12809 whole entry): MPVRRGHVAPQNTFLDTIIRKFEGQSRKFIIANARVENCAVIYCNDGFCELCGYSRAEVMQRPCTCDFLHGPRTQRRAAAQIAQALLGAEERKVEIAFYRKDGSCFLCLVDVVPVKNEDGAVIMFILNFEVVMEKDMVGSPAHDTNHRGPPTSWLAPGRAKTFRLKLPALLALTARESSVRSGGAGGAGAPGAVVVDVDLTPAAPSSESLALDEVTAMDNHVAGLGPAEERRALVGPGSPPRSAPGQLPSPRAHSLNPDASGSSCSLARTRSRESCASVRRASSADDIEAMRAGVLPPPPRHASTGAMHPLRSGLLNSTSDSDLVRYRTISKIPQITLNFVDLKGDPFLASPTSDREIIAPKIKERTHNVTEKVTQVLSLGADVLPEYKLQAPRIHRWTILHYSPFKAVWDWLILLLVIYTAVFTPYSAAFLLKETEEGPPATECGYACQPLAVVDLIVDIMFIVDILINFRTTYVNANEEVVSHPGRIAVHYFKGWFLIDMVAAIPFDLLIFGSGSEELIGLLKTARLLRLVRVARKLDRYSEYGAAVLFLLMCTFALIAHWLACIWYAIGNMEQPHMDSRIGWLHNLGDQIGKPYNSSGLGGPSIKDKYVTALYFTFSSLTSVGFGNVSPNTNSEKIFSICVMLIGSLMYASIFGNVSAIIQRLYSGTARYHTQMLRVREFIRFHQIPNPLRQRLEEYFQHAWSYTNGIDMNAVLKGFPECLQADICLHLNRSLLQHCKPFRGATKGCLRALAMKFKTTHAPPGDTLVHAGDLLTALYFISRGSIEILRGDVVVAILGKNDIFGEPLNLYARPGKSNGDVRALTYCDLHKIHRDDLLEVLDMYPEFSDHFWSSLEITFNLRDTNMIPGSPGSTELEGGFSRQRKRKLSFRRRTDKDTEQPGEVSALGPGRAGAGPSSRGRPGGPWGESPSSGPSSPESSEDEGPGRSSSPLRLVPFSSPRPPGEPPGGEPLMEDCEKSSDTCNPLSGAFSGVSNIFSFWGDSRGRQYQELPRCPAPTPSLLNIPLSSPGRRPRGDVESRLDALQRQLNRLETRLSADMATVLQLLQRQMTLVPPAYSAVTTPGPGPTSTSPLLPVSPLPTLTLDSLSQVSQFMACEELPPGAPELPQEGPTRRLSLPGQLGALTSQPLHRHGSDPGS
Chain of Cytochrome P450 2C9 (P11712 whole entry): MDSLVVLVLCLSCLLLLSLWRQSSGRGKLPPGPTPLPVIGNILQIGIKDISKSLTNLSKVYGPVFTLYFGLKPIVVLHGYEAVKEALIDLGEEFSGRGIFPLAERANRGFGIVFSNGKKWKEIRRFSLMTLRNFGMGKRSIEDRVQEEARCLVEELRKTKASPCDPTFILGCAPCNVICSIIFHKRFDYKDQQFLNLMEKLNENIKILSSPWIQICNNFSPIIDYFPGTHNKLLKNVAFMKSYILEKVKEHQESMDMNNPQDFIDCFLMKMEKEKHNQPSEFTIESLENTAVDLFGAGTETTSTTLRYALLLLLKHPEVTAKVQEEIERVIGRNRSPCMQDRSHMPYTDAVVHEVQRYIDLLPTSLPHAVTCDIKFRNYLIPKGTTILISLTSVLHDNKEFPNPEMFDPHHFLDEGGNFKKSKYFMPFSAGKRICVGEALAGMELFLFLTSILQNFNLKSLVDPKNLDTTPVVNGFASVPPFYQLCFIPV

For Nc1nc(SCc2ccc([N+](=O)[O-])cc2)c2ncn([C@@H]3O[C@H](CO)[C@H](O)[C@H]3O)c2n1, the AC50 [1] was 20 µM (inconclusive).

In the case of O=C(c1ccco1)N1CCC2(CC1)CN(C(c1ccccc1)c1ccccc1)C2, the AC50 (Cytochrome P450 2C9) is reported as 25.1 µM (inconclusive) and the AC50 (Cytochrome P450 3A4) is reported as “inconclusive”.

For CCCCn1c(=O)c(C(=O)Nc2ccccc2S(N)(=O)=O)c(O)c2ccccc21, the IC50 (Bcl-2-related protein A1) was 2.02 µM (active), the IC50 [2] was 15.5 µM (active) and the IC50 [3] was > 20 µM (inactive).

For CC(C)c1ccc(N2C(=O)NC(=O)/C(=C/C=C/c3ccco3)C2=O)cc1, the CC50 [4] was 31.6 µM (active), the AC50 [5] was 1.81 µM (active) and the AC50 [6] was 5.89 µM (active). For the same molecule, the IC50 (cells) was 17.4 µM (active), the AC50 (A-375 [7]) was > 35 µM (active) and the AC50 (A-375 [8]) was > 35 µM (active). For the same molecule, the EC50 (HEK293 [9]) was > 59.6 µM (inactive) and the EC50 (HEK293 [10]) was > 59.6 µM (inactive).

In the case of CCCNC(=O)c1ccccc1NC(=O)c1ccccc1N(C)S(=O)(=O)c1ccccc1, the AC50 [11] is reported as 1.83 µM (active), the AC50 [12] is reported as 3.19 µM (active) and the AC50 [13] is reported as 3.2 µM (active). The AC50 [14] was 8.47 µM (active), the EC50 (HEK293 [9]) was > 59.6 µM (inactive) and the EC50 (HEK293 [10]) was > 59.6 µM (inactive).

With CC(C)(C=O)Cc1cc(C(C)(C)C)c(O)c(C(C)(C)C)c1 the AC50 [1] was 35.5 µM (inconclusive).

For C=CC[n+]1c(-c2ccc(Cl)cc2Cl)csc1Nc1c(C)n(C)n(-c2ccccc2)c1=O, the EC50 (HEK293 [15]) was 5.29 µM (active), the IC50 (HEK293 [16]) was 6.87 µM (active) and the IC50 (HEK293 [17]) was > 20 µM (inactive). For the same molecule, the IC50 (HEK293 [18]) was 7.13 µM (active) and the IC50 [19] was 9.47 µM (active).
